The values below come from patent US5230802A, “Extraction process using a novel organic acid as a liquid ion exchanger” (Philip Morris Incorporated, priority 1992, dated 1993).

For series [1] the following is noted: 180 min; 5% LIX, 20 mM nicotine, 4 L FS; ND = None detected. The source says: (§1) The apparatus used is a Model MSX-750 laboratory unit purchased from Sepracor, Inc., Marlborough, Mass.; it is a 3-panel, 3-loop, 2-membrane operation. As shown in the Figure, each panel has a solvent circulation pump (1), pressure gauge, flow rotometer, and multiple valves for control of the solvent input and output (not shown). A separate pump controller (not shown) provides variable speed and on/off controls for all three panels. Analysis ports are built into the unit to allow pH readings at the feedstock (2)- and recovery panels (3)- and automatic pH titration at the recovery solution panel. Sample aliquots can be removed from all three system solvents in line (4)- or from the reservoirs (5). The membrane modules (6) contain a hollow fiber bundle in a plastic cartridge with connectors to allow flow through the hollow fibers (lumen) with one solvent and simultaneous flow around the fibers (shell) with an "exchanging" solvent (not shown). The membrane fibers used were either regenerated cellulose (RC) or polyacrylonitrile (PAN) and were 0.5-1.5 square meters in surface area.
For this membrane separation process, solutions are recirculated at 100-900 ml/min. The feedstock reservoir volume is between 0.5 L and 8.0 L of aqueous solution which is 0.1-10.0% dissolved base, e.g., pyridine or nicotine, at a pH between 4 and 10. […]

The conditions of series [2]: 2% LIX in Isopar K, 1.5 m2 PAN.
Excerpt: as §1
For this membrane separation process, solutions are recirculated at 100-900 ml/min. The feedstock reservoir volume is between 0.5 L and 8.0 L of aqueous solution which is 0.1-10.0% dissolved base, e.g., pyridine or nicotine, at a pH between 4 and 10. The feedstock solution can also contain other compounds, e.g., tobacco components. The organic solvent (OS) reservoir contains from 300-1000 mL of a water-immiscible solvent like hexane, heptane, octane, nonane, decane or Isopar K (Exxon) to which is added 0.1-10.0% of LIX. The OS is recirculated in the center panel through the lumen of both membrane modules and is always kept at 2-10 psi higher than the aqueous phases to maintain phase separation. The aqueous recovery solution is maintained at a constant pH (1.0-4.0) via an automatic titration unit (Metrohm Model 665 Dosimat with Model 614 Impulsomat and Model 632 Digital-pH-Meter, Metrohm Ltd., CH-9100 Herisau, Switzerland) using 1.0 M sulfuric acid to provide a pH differential and as a collection sink for the base being transferred, e.g., pyridine or nicotine.
Seven consecutive runs were performed with the apparatus outlined in Example XII without the use of a LIX in the OS, changing to a fresh 1 liter 0.32% nicotine FS each run and leaving the RS alone to concentrate the nicotine recovered (Section A). Prior to run 8, fresh FS, OS and RS solutions were placed within the system. For the five consecutive runs 8-12, 2% LIX (Example X) in Isopar K was used as the OS, 0.32% nicotine in deionized water for FS (one liter fresh for each run), and a fresh deionized water RS was left in place for all five runs to concentrate the nicotine (Section B). The volume of the RS increased during the runs 8-12 because the nicotine was transferred into it and because acid solution was pumped into it to maintain a pH of ca. 3. Then three additional runs 13-15 were made using the same OS and the same RS (to form a more concentrated nicotine solution) from Section B; 4 L FS solutions of 0.32% nicotine in deionized water (a fresh solution each run) were used (Section C). […] The OS continues to operate without replacement.

The nature of series [3]: Organic phase/aqueous phase partition coefficient of nicotine in presence of LIX (Table I). It counts as physicochemical. As to conditions: in words; for solubility of the nicotine-LIX complex: water versus hexane. The source says:
As hereinbefore disclosed, two different experimental criteria can be used to measure the capability of a LIX. First, the organic phase/water phase partition coefficient (PC) can be determined. The partition coefficient, as used herein, can be defined as the ratio of the amount of a substance dissolved in one phase in relation to the amount of the substance dissolved in the second phase. Accordingly, in determining the partition coefficient in the solvent extraction of nicotine from a tobacco processing fluid to another, the ratio would be the concentration of nicotine in the organic (extraction) phase divided by the concentration of nicotine in the aqueous (process) phase. If the partition coefficient increases, i.e., more of the nicotine is soluble in the organic phase, in the presence of a LIX, then this LIX meets one of the objectives for a successful nicotine transfer agent.
Table I is a presentation of the partition coefficients of various liquid ion exchangers, including control experiments where no LIX are utilized. […] Capabilities of the LIX as well as the components of the various phases must all be considered.

Values joined by “and” are separate entries in the source; they are usually repeats but may differ in a detail not shown here. Identical values can stand only once. Like-named read-outs stand apart in the source and are kept apart here.

`CCCCC(CC)COC(=O)[C@H](OC(=O)C(CC)CCCC)[C@@H](OC(=O)C(CC)CCCC)C(=O)O` (stereo partly drawn) [Example X, (2R, 3R, 2'.xi., 2''.xi., 2'''.xi.)-Mono(2'-Ethylhexyl) 2,3-Bis(2-ethylhexanoyloxy)butanedioate]: the “Percent (%) remaining in FS” value in series [1] is given as 10.0%. Further, the “Percent (%) nicotine remaining in FS” value was 100% in series [2] (Section B, 0 min, 1 liter FS at 0.32% nicotine); 49% and 50% in series [2] (Section B, 15 min, 1 liter FS at 0.32% nicotine); 37% and 36% and 35% in series [2] (Section B, 30 min, 1 liter FS at 0.32% nicotine); 23% and 24% in series [2] (Section B, 45 min, 1 liter FS at 0.32% nicotine); 14% and 13% in series [2] (Section B, 60 min, 1 liter FS at 0.32% nicotine); 100% in series [2] (Section C, 0 min, 4 liters FS at 0.32% nicotine). Besides, the “Percent (%) nicotine remaining in FS” value was 51% in series [2] (Section C, 60 min, 4 liters FS at 0.32% nicotine); 35% and 37% in series [2] (Section C, 120 min, 4 liters FS at 0.32% nicotine); 21% and 23% in series [2] (Section C, 180 min, 4 liters FS at 0.32% nicotine); 13% in series [2] (Section C, 240 min, 4 liters FS at 0.32% nicotine).

`CCCCC(CC)COC(=O)[C@H](OC(C)=O)[C@@H](OC(C)=O)C(=O)O` (mixture of isomers) [Example III, (2R, 3R, 2'R)- and (2R, 3R, 2'S)-Mono(2'-Ethylhexyl) 2,3-Bis(acetyloxy)butanedioate]: in series [3], the “partition coefficient compared with no LIX present” value is given as “less than without any LIX present” and the “solubility of the nicotine-LIX complex” value is “more water soluble than hexane soluble”.

Consider `CCCCC(CC)COC(=O)[C@H](OC(=O)CC)[C@@H](OC(=O)CC)C(=O)O` (mixture of isomers) [Example V, (2R, 3R, 2'R)- and (2R, 3R, 2'S)-Mono(2'-Ethylhexyl) 2,3-Bis(propionyloxy)butanedioate], for which, in series [3], the “partition coefficient compared with no LIX present” value is on record as “less than without any LIX present” and the “solubility of the nicotine-LIX complex” value is listed as “more water soluble than hexane soluble”.
